Test systems include 786-0 renal; COLO 205 colon; HCT-15 colon; LOX IMVI melanoma; NCI/ADR-RES ovarian; RXF 393 renal; SF-295 CNS; SK-MEL-2 melanoma; SK-OV-3 ovarian; SN12C renal; TK-10 renal.
Common to all, as to test: growth of human tumour cells (NCI), 48 h

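Interpolation was linear, between the two tested concentrations surrounding the appropriate level; five concentrations were tested over 48 hours in 96-well plates. At the TGI there is no net growth.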

The source of these data is PubChem BioAssay (NCI).

As for `Brc1ccc(/C(N=N/C(=N\Sc2ccccc2)c2ccc(Br)cc2)=N/Sc2ccccc2)cc1`, the TGI in the experiment on 786-0 renal, in the experiment on COLO 205 colon, in the experiment on HCT-15 colon, with LOX IMVI melanoma, in the experiment on NCI/ADR-RES ovarian and in the experiment on RXF 393 renal was above 100 µM in each case. The TGI with SF-295 CNS, with SK-MEL-2 melanoma, in the experiment on SK-OV-3 ovarian, in the experiment on SN12C renal and with TK-10 renal was above 100 µM in each case.
On to `COC(=O)[C@@H]1[C@H]2CC[C@]3(C)[C@@H](OC(C)=O)CC[C@H]3[C@@H]2CC[C@H]1C1(C)SCCS1`, for which the TGI with 786-0 renal is 62.5 µM; in the experiment with COLO 205 colon, 29.3 µM; in the experiment on HCT-15 colon it was above 100 µM; in the experiment with LOX IMVI melanoma, 34.6 µM; with NCI/ADR-RES ovarian, 57.1 µM; in the experiment with RXF 393 renal, 40.6 µM. For the same molecule, the TGI was 73.6 µM in the experiment with SF-295 CNS; 40 µM in the experiment on SK-MEL-2 melanoma; above 100 µM with SK-OV-3 ovarian; 37 µM in the experiment on SN12C renal; above 100 µM in the experiment on TK-10 renal.
For `CC(C)(C)C#CI1OC(=O)c2ccccc21`, the TGI in the experiment with 786-0 renal is 11.5 µM; with COLO 205 colon it was 4.65 µM; in the experiment with HCT-15 colon, 11.6 µM; with LOX IMVI melanoma, 3.89 µM; in the experiment on NCI/ADR-RES ovarian it was above 45.4 µM; in the experiment on RXF 393 renal it was 30.4 µM. For the same molecule, the TGI in the experiment with SF-295 CNS was 28.2 µM; in the experiment with SK-MEL-2 melanoma, 27 µM; in the experiment with SK-OV-3 ovarian, 25.1 µM; in the experiment with SN12C renal, 19 µM; in the experiment with TK-10 renal, 15.8 µM.
Take `C=CCN(c1cc(OC)c2[nH]c(C(=O)O)c(C)c2c1[N+](=O)[O-])S(C)(=O)=O`: the TGI in the experiment on 786-0 renal, with COLO 205 colon, in the experiment on HCT-15 colon, in the experiment with LOX IMVI melanoma, in the experiment with NCI/ADR-RES ovarian and with RXF 393 renal was above 100 µM in each case. For the same molecule, the TGI in the experiment with SF-295 CNS, in the experiment with SK-MEL-2 melanoma, with SK-OV-3 ovarian, in the experiment on SN12C renal and with TK-10 renal was above 100 µM in each case.
As for `CC12CCC(=O)[C@@]1(C)CCCC2=O` (stereo partly specified), the TGI in the experiment on 786-0 renal, in the experiment on COLO 205 colon, in the experiment with HCT-15 colon, in the experiment on LOX IMVI melanoma, with NCI/ADR-RES ovarian and in the experiment on RXF 393 renal was above 100 µM each time. In addition, the TGI in the experiment with SF-295 CNS, with SK-MEL-2 melanoma, in the experiment on SK-OV-3 ovarian, in the experiment on SN12C renal and with TK-10 renal was above 100 µM each time.
With `CC(Br)CN(CC(C)Br)c1ccc2c(c1)Cc1ccccc1-2` (stereo unspecified), the TGI stood at 23.1 µM in the experiment with 786-0 renal; 27.5 µM with COLO 205 colon; 27.7 µM with HCT-15 colon; 23.2 µM in the experiment on LOX IMVI melanoma; 38.4 µM in the experiment with NCI/ADR-RES ovarian; 28 µM in the experiment on RXF 393 renal. Further, the TGI in the experiment with SF-295 CNS came to 22.6 µM; with SK-MEL-2 melanoma it was 29.6 µM; in the experiment on SK-OV-3 ovarian, 31.1 µM; in the experiment with SN12C renal, 26.7 µM; in the experiment on TK-10 renal, 26.2 µM.
On to `Cc1cccc2c(N)c3cccc(C(=O)NCC[N+](C)(C)[O-])c3nc12`, for which the TGI in the experiment with 786-0 renal was above 100 µM; in the experiment with COLO 205 colon, 40.4 µM; in the experiment on HCT-15 colon it was above 100 µM; with LOX IMVI melanoma, above 100 µM; in the experiment on NCI/ADR-RES ovarian, above 100 µM; in the experiment on RXF 393 renal, 27.5 µM. Also, the TGI with SF-295 CNS is 45.4 µM; in the experiment with SK-MEL-2 melanoma, above 100 µM; in the experiment with SK-OV-3 ovarian, 64.6 µM; in the experiment with SN12C renal, above 100 µM; with TK-10 renal, above 100 µM.
`COc1ccc2c(c1)-c1nc(=S)n(CCN(C)C)c3ccc([N+](=O)[O-])c(c13)N2`: the TGI in the experiment with 786-0 renal is 1.8 µM; in the experiment with COLO 205 colon, 5.97 µM; in the experiment on HCT-15 colon, 4.76 µM; in the experiment on LOX IMVI melanoma it was 2.29 µM; in the experiment with NCI/ADR-RES ovarian it was 3.61 µM; with RXF 393 renal, 3.3 µM. Also, the TGI in the experiment with SF-295 CNS was found to be 18.3 µM; in the experiment on SK-MEL-2 melanoma it was 24.3 µM; in the experiment with SK-OV-3 ovarian, 18 µM; in the experiment on SN12C renal it was 2.05 µM; in the experiment on TK-10 renal it was 16.5 µM.
As to `CC(C)(C)[Si](C)(C)OC1CCOC1(O)c1ccccn1` (stereo unspecified), the TGI in the experiment with 786-0 renal, in the experiment on COLO 205 colon, in the experiment with HCT-15 colon, in the experiment on LOX IMVI melanoma, in the experiment with NCI/ADR-RES ovarian and with RXF 393 renal was above 100 µM throughout. The TGI with SF-295 CNS, in the experiment with SK-MEL-2 melanoma, in the experiment on SK-OV-3 ovarian, in the experiment on SN12C renal and in the experiment with TK-10 renal was above 100 µM throughout.
With `Clc1sc(Cl)c2c1[C@H](Br)C[C@@H]2Cl`, the TGI in the experiment on 786-0 renal came to 99.1 µM; in the experiment with COLO 205 colon it was 44.3 µM; in the experiment on HCT-15 colon, 40.7 µM; with LOX IMVI melanoma, 49.5 µM; with NCI/ADR-RES ovarian, 44.2 µM; with RXF 393 renal it was 87.6 µM. Also, the TGI was above 100 µM with SF-295 CNS; above 100 µM in the experiment on SK-MEL-2 melanoma; above 100 µM in the experiment with SK-OV-3 ovarian; 85.3 µM in the experiment on SN12C renal; 87.7 µM with TK-10 renal.
Regarding `CCOC(=O)OC1(c2ccccc2)CCN(C)CC1`, the TGI in the experiment with 786-0 renal, in the experiment on COLO 205 colon, with HCT-15 colon, in the experiment with LOX IMVI melanoma, with NCI/ADR-RES ovarian and in the experiment on RXF 393 renal was above 100 µM in each case. The TGI in the experiment on SF-295 CNS, in the experiment with SK-MEL-2 melanoma, in the experiment with SK-OV-3 ovarian, in the experiment with SN12C renal and with TK-10 renal was above 100 µM throughout.
